Literature values as cited in publication PMC9516332 (Frontiers in Oncology, 2022).
Read-outs that look alike come from different tables or passages of the source.

Legend:
Conditions in all cases: cited from earlier work
[1] = target: T1, panel of 255 wild-type kinases (Homo sapiens, UniProt O15530)
T1 sequence (O15530 1-556): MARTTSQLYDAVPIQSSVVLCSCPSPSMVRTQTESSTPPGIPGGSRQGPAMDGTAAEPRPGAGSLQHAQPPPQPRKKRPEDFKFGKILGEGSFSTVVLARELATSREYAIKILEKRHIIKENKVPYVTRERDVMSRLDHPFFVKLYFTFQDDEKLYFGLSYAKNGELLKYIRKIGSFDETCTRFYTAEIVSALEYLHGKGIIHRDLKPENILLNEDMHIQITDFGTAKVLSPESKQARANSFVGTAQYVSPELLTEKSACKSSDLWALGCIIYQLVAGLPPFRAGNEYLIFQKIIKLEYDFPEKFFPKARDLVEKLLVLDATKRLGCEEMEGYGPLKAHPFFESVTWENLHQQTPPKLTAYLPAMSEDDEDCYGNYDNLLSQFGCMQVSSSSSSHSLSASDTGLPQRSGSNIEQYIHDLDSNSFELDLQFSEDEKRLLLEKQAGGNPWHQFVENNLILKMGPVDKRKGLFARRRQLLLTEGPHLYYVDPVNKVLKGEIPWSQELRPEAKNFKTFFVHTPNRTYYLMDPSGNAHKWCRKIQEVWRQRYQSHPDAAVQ

[2] = target: panel of 255 wild-type kinases (Homo sapiens, UniProt P21802)
[3] = target: panel of 255 wild-type kinases (Homo sapiens, UniProt P24723)
[4] = target: T2, panel of 255 wild-type kinases (Homo sapiens, UniProt P29322)
T2 sequence (P29322 28-1005): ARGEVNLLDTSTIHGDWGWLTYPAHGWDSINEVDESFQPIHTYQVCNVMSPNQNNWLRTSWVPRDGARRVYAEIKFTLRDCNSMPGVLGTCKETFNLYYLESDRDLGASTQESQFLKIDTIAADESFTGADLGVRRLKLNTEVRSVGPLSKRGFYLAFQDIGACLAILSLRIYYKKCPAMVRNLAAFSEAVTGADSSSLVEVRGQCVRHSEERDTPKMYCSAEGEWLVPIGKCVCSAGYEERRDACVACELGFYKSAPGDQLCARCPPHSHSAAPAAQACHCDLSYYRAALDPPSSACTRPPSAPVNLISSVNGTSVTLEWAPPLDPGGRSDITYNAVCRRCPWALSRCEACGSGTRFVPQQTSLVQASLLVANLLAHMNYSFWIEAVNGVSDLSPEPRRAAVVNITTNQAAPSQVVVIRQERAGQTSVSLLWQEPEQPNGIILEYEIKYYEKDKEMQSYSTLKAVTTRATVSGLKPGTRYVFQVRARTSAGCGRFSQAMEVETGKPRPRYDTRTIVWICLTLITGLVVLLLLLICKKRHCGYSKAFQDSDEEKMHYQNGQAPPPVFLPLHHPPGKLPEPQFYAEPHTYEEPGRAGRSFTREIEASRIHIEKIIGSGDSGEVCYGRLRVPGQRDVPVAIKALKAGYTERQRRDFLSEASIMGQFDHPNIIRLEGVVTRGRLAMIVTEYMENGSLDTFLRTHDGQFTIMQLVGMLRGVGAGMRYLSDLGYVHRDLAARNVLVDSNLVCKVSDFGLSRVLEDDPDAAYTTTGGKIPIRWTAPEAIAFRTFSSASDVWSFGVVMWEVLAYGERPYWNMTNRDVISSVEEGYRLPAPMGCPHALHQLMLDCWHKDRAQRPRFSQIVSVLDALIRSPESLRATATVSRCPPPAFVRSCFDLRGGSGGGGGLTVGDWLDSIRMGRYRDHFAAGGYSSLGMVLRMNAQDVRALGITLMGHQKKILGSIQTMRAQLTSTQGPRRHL

[5] = target: panel of 255 wild-type kinases (Homo sapiens, UniProt P42685)
[6] = target: panel of 255 wild-type kinases (Homo sapiens, UniProt Q05655)
[7] = target: panel of 255 wild-type kinases (Homo sapiens, UniProt Q13882)
[8] = target: panel of 255 wild-type kinases (Homo sapiens, UniProt Q86V86)
[9] = target: panel of 255 wild-type kinases (Homo sapiens, UniProt Q8TDX7)
[10] = target: panel of 255 wild-type kinases (Homo sapiens, UniProt Q9NYY3)
[11] = target: panel of 255 wild-type kinases (Homo sapiens, UniProt Q9Y5S2)
[12] = kinase PDK1, 1 µmol/L single concentration, ref DOI: 10.1158/1535-7163.MCT-18-0877
[13] = kinase FGFR2, 1 µmol/L single concentration, ref DOI: 10.1158/1535-7163.MCT-18-0877
[14] = kinase PKCη, 1 µmol/L single concentration, ref DOI: 10.1158/1535-7163.MCT-18-0877
[15] = kinase EPHA8, 1 µmol/L single concentration, ref DOI: 10.1158/1535-7163.MCT-18-0877
[16] = kinase FRK, 1 µmol/L single concentration, ref DOI: 10.1158/1535-7163.MCT-18-0877
[17] = kinase PKCδ, 1 µmol/L single concentration, ref DOI: 10.1158/1535-7163.MCT-18-0877
[18] = BRK kinase assay, 1 µmol/L single concentration, ref DOI: 10.1158/1535-7163.MCT-18-0877
[19] = kinase PIM3, 1 µmol/L single concentration, ref DOI: 10.1158/1535-7163.MCT-18-0877
[20] = NEK7, 1 µmol/L single concentration, ref DOI: 10.1158/1535-7163.MCT-18-0877
[21] = kinase PLK2, 1 µmol/L single concentration, ref DOI: 10.1158/1535-7163.MCT-18-0877
[22] = MRCKβ, 1 µmol/L single concentration, ref DOI: 10.1158/1535-7163.MCT-18-0877
[23] = kinase PDK1, 1 µmol/L single concentration, ref DOI: 10.1371/journal.pone.0092146
[24] = kinase FGFR2, 1 µmol/L single concentration, ref DOI: 10.1371/journal.pone.0092146
[25] = kinase PKCη, 1 µmol/L single concentration, ref DOI: 10.1371/journal.pone.0092146
[26] = kinase EPHA8, 1 µmol/L single concentration, ref DOI: 10.1371/journal.pone.0092146
[27] = kinase FRK, 1 µmol/L single concentration, ref DOI: 10.1371/journal.pone.0092146
[28] = kinase PKCδ, 1 µmol/L single concentration, ref DOI: 10.1371/journal.pone.0092146
[29] = BRK kinase assay, 1 µmol/L single concentration, ref DOI: 10.1371/journal.pone.0092146
[30] = kinase PIM3, 1 µmol/L single concentration, ref DOI: 10.1371/journal.pone.0092146
[31] = NEK7, 1 µmol/L single concentration, ref DOI: 10.1371/journal.pone.0092146
[32] = kinase PLK2, 1 µmol/L single concentration, ref DOI: 10.1371/journal.pone.0092146
[33] = MRCKβ, 1 µmol/L single concentration, ref DOI: 10.1371/journal.pone.0092146

SMILES | %-inhibition at 1 µmol/L, PDK1 [1, 12] [%] | %-inhibition at 1 µmol/L, FGFR2 [2, 13] [%] | %-inhibition at 1 µmol/L, PKCη [3, 14] [%] | %-inhibition at 1 µmol/L, EPHA8 [4, 15] [%] | %-inhibition at 1 µmol/L, FRK [5, 16] [%] | %-inhibition at 1 µmol/L, PKCδ [6, 17] [%] | %-inhibition BRK [7, 18] [%] | %-inhibition at 1 µmol/L, PIM3 [8, 19] [%] | %-inhibition, NEK7 [9, 20] [%] | %-inhibition at 1 µmol/L, PLK2 [10, 21] [%] | %-inhibition, MRCKβ [11, 22] [%] | also measured
O=C(c1ccc(F)c(F)c1Nc1ccc(I)cc1F)N1CC(O)([C@@H]2CCCCN2)C1 [cobimetinib] | -1.65 | -2.8 | -2 | -5.33 | 0.866 | -2.12 | -1 | -0.814 | 1.68 | -0.309 | 0.0776 | 
CO[C@@H]1[C@H](N(C)C(=O)c2ccccc2)C[C@H]2O[C@]1(C)n1c3ccccc3c3c4c(c5c6ccccc6n2c5c31)C(=O)NC4 [midostaurin] | 98 | 97 |  | 6.51 | 70 |  | 11 | 71 | -11 | 2.68 | 18 | %-inhibition at 1 µmol/L, PKCη [3]: 84%; %-inhibition at 1 µmol/L, PKCδ [6]: 93%
C=CC(=O)N1CCC[C@@H](n2nc(-c3ccc(Oc4ccccc4)cc3)c3c(N)ncnc32)C1 [ibrutinib] | -2 | 81 | 3.27 | 55 | 100 | 0.525 |  | -0.241 | 0.69 | 1.72 | -7.55 | %-inhibition BRK [7]: 103%
C[C@@H](Oc1cc(-c2cnn(C3CCNCC3)c2)cnc1N)c1c(Cl)ccc(F)c1Cl [crizotinib] |  |  |  |  |  |  |  |  |  |  |  | %-inhibition at 1 µmol/L, PDK1 [1, 23]: -5%; %-inhibition at 1 µmol/L, FGFR2 [2, 24]: 27%; %-inhibition at 1 µmol/L, PKCη [3, 25]: -8%; %-inhibition at 1 µmol/L, EPHA8 [4, 26]: 82%; %-inhibition at 1 µmol/L, FRK [5, 27]: 26%; %-inhibition at 1 µmol/L, PKCδ [6, 28]: -1.14%; %-inhibition BRK [7, 29]: 15%; %-inhibition at 1 µmol/L, PIM3 [8, 30]: -4%; %-inhibition, NEK7 [9, 31]: -5.3%; %-inhibition at 1 µmol/L, PLK2 [10, 32]: 1.1%; %-inhibition, MRCKβ [11, 33]: -2%
Cc1cc(Nc2ncc(Cl)c(Nc3ccccc3S(=O)(=O)C(C)C)n2)c(OC(C)C)cc1C1CCNCC1 [ceritinib] | -2.25 | 15 | 5.3 | 6 | 85 | 5 | 98 | -0.463 | -0.251 | -3.54 | -0.678 | 
CC(C)(C)c1nc(-c2cccc(NS(=O)(=O)c3c(F)cccc3F)c2F)c(-c2ccnc(N)n2)s1 [dabrafenib] |  |  |  |  |  |  |  |  |  |  |  | %-inhibition at 1 µmol/L, PDK1 [1, 23]: -5.38%; %-inhibition at 1 µmol/L, FGFR2 [2, 24]: 4%; %-inhibition at 1 µmol/L, PKCη [3, 25]: 9%; %-inhibition at 1 µmol/L, EPHA8 [4, 26]: 35%; %-inhibition at 1 µmol/L, FRK [5, 27]: 81%; %-inhibition at 1 µmol/L, PKCδ [6, 28]: -6%; %-inhibition BRK [7, 29]: 98%; %-inhibition at 1 µmol/L, PIM3 [8, 30]: 9%; %-inhibition, NEK7 [9, 31]: 2.28%; %-inhibition at 1 µmol/L, PLK2 [10, 32]: -4.64%; %-inhibition, MRCKβ [11, 33]: -2.85%
C=CC(=O)Nc1cc(Nc2nccc(-c3cn(C)c4ccccc34)n2)c(OC)cc1N(C)CCN(C)C [osimertinib] | 0.0271 | 5.56 | 0.117 | -8 | 34 | 16 | 101 | 15 | 0.703 | 1.06 | 12 | 
CC#CC(=O)N1CCC[C@H]1c1nc(-c2ccc(C(=O)Nc3ccccn3)cc2)c2c(N)nccn12 [acalabrutinib] | -1.47 | -6 | -3.18 | 6.51 | 47 | -9 | 51 | -0.0376 | -11 | 2.47 | -16 | 
COc1cc(N2CCC(N3CCN(C)CC3)CC2)ccc1Nc1ncc(Cl)c(Nc2ccccc2P(C)(C)=O)n1 [brigatinib] |  |  |  |  |  |  |  |  |  |  |  | %-inhibition at 1 µmol/L, PDK1 [1]: 4.31%; %-inhibition at 1 µmol/L, FGFR2 [2]: 97%; %-inhibition at 1 µmol/L, PKCη [3]: 17%; %-inhibition at 1 µmol/L, EPHA8 [4]: 6.55%; %-inhibition at 1 µmol/L, FRK [5]: 104%; %-inhibition at 1 µmol/L, PKCδ [6]: 34%; %-inhibition BRK [7]: 103%; %-inhibition at 1 µmol/L, PIM3 [8]: 5.69%; %-inhibition, NEK7 [9]: 1.23%; %-inhibition at 1 µmol/L, PLK2 [10]: 0.275%; %-inhibition, MRCKβ [11]: 38%
